This is an account of results in patent publication US20110071197A1, “BIS-ARYL COMPOUNDS FOR USE AS MEDICAMENTS” (priority 2008, published 2011).

In the experiment the target is T1, Recombinant human LTC4 synthase (Homo sapiens, UniProt Q16873).
T1 construct: made in house; host or cells: Pichia pastoris
T1 sequence (Q16873 1-150): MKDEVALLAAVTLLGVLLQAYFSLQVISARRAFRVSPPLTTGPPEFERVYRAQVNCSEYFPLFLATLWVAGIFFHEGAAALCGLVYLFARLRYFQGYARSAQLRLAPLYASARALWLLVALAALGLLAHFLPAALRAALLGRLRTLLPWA
Put plainly: LTC4 synthase in vitro assay (HTRF detection of LTC4). The experiment is classed as biochemical. Conditions: total concentration of title compound in the assay 10 μM; HTRF method. An outline of the steps: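 Pichia-expressed recombinant human LTC4 synthase at 0.5 μg/ml total protein in PBS pH 7.4 with 5 mM GSH, preincubated 10 min at RT with inhibitor (10 μM final). LTA4 (2.5 μM final) was then added for 5 min at RT. LTC4 formed was read by HTRF.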
(In general: Time-resolved FRET reads energy transfer from a long-lived donor to a nearby acceptor.)

`COc1ccc(S(=O)(=O)N(C)c2ccc(Oc3ccc(NC(=O)c4ccccc4Cl)c(C(=O)O)c3)cc2)cc1` [11:22, 2-(2-Chloro-benzoylamino)-5-{4-[(4-methoxybenzenesulfonyl)-methylamino]phenoxy}benzoic acid]: the inhibition at 10 µM came to 95%. Turning to `CCCCc1ccc(C(=O)Nc2ccc(Oc3ccc(Nc4ccc(F)cc4)cc3)cc2C(=O)O)cc1` [12:2, 5-(4-(4-fluorophenylamino)-phenoxy)-2-(4-butylbenz-amido)benzoic acid], the “% inh.” value is reported as 94%. Turning to `CCCCc1ccc(C(=O)Nc2ccc(Oc3ccc(N(C(=O)c4ccc(CCCC)cc4)c4ccc(F)cc4)cc3)cc2C(=O)O)cc1` [12:3, 5-(4-((N-4-fluorophenyl)4-butylbenzamido)phenoxy)-2-(4-butylbenzamido)benzoic acid], the inhibition at 10 µM was determined as 83%. Same read-out and setting: the figure for `O=C(O)c1cc(Oc2ccc(N(c3ccc(C(=O)C4CC4)cc3)c3ccc(C(=O)C4CC4)cc3)cc2)ccc1Nc1ccc(C(=O)C2CC2)cc1` [12:4, 5-{4-[bis-(4-cyclopropane-carbonyl-phenyl)-amino]-phenoxy}-2-(4-cycloprop-anecarbonyl-phenylamino)-benzoic acid] is 87%.

Regarding `O=C(O)c1cc(Oc2ccc(Nc3ccc(Cl)cc3)cc2)ccc1Nc1ccc(Cl)cc1` [12:5, 2-(4-chloro-phenylamino)-5-[4-(4-chloro-phenylamino)-phenoxy]-benzoic acid], the inhibition at 10 µM is 96%. For the compound `CCCCc1ccc(C(=O)Nc2ccc(Sc3ccc(NC(=O)c4ccc(CCCC)cc4)c(C(=O)O)c3)cc2C(=O)O)cc1` [13:1, 2-(4-butylbenzamido)-5-((4-(4-butylbenzamido)-3-carboxyphenyl)-sulfanyl)benzoic acid], the inhibition at 10 µM is 98%.

Take `O=C(Nc1ccc(Sc2ccc(NC(=O)c3cccc(Cl)c3)c(C(=O)O)c2)cc1C(=O)O)c1cccc(Cl)c1` [13:2, 2-(3-chlorobenzamido)-5-((4-(3-chlorobenzamido)-3-carboxyphenyl)sulfanyl)benzoic acid]: the inhibition at 10 µM is 100%. Consider `O=C(Nc1ccc(Sc2ccc(NC(=O)c3ccc(C(F)(F)F)cc3)c(C(=O)O)c2)cc1C(=O)O)c1ccc(C(F)(F)F)cc1` [13:3, 2-(4-(trifluoromethyl)-benzamido)-5-((4-(4-(trifluoromethyl)benzamido)-3-carboxyphenyl)sulfanyl)benzoic acid], for which the inhibition at 10 µM came to 99%. Turning to `CCCCc1ccc(S(=O)(=O)Nc2ccc(Sc3ccc(NS(=O)(=O)c4ccc(CCCC)cc4)c(C(=O)O)c3)cc2)cc1` [14:3, 2-(4-butyl-benzenesulfonyl-amino)-5-[4-(4-butyl-benzen-sulfonylamino)phenyl-sulfanyl]benzoic acid], the inhibition at 10 µM turned out to be 98%. `O=C(O)c1cc(Sc2ccc(NS(=O)(=O)c3ccc(Cl)cc3)cc2)ccc1NS(=O)(=O)c1ccc(Cl)cc1` [14:4, 2-(4-chloro-benzenesulfonyl-amino)-5-[4-(4-chloro-benzenesulfonylamino)-phenylsulfanyl]-benzoic acid]: the inhibition at 10 µM is 100%.

On to `O=C(Nc1ccc(Cl)cc1)Nc1ccc(Sc2ccc(NC(=O)Nc3ccc(Cl)cc3)c(C(=O)O)c2)cc1` [14:5, 2-[3-(4-chlorophenyl)-ureido]-5-{4-[3-(4-chlorophenyl)-ureido]phenylsulfanyl}-benzoic acid], for which the inhibition at 10 µM was 97%.

`CCCCc1ccc(C(=O)Nc2ccc([S+]([O-])c3ccc(NC(=O)c4ccc(CCCC)cc4)c(C(=O)O)c3)cc2C(=O)O)cc1` [15:1, 5-(4-(4-butylbenzamido)-3-carboxyphenylsulfinyl)-2-(4-butylbenzamido)benzoic acid]: the inhibition at 10 µM worked out at 99%.

For `O=C(Nc1ccc([S+]([O-])c2ccc(NC(=O)c3cccc(Cl)c3)c(C(=O)O)c2)cc1C(=O)O)c1cccc(Cl)c1` [15:2, 2-(3-chlorobenzamido)-5-(4-(3-chlorobenzamido)-3-carboxyphenylsulfinyl)benzoic acid], the inhibition at 10 µM worked out at 100%. With `O=C(Nc1ccc([S+]([O-])c2ccc(NC(=O)c3ccc(C(F)(F)F)cc3)c(C(=O)O)c2)cc1C(=O)O)c1ccc(C(F)(F)F)cc1` [15:3, 2-(4-(trifluoromethyl)benz-amido)-5-((4-(4-(trifluoromethyl)benzamido)-3-carboxy-phenyl)sulfinyl)benzoic acid], the “% inh.” value is reported as 99%. For `O=C(Nc1ccc(S(=O)(=O)c2ccc(NC(=O)c3cccc(Cl)c3)c(C(=O)O)c2)cc1C(=O)O)c1cccc(Cl)c1` [16:1, 2-(3-chlorobenzamido)-5-(4-(3-chlorobenzamido)-3-carboxyphenylsulfonyl)-benzoic acid], the inhibition at 10 µM was determined as 98%. For the compound `O=C(Nc1ccc(S(=O)(=O)c2ccc(NC(=O)c3ccc(C(F)(F)F)cc3)c(C(=O)O)c2)cc1C(=O)O)c1ccc(C(F)(F)F)cc1` [16:2, 2-(4-(trifluoromethyl)benz-amido)-5-((4-(4-(trifluoro-methyl)benzamido)-3-carboxyphenyl)sulfonyl)-benzoic acid], the “% inh.” value turned out to be 97%.

As for `O=C(O)Cc1cc(Oc2ccc(NC(=O)c3ccc(C(F)(F)F)cc3F)cc2)ccc1NC(=O)c1cccc(Cl)c1` [17:1, {2-(3-chloro-benzoylamino)-5-[4-(2-fluoro-4-trifluoromethyl-benzoylamino)-phenoxy]-phenyl}-acetic acid], the inhibition at 10 µM amounted to 96%.

In the case of `O=C(O)Cc1cc(Oc2ccc(NC(=O)c3ccccc3)cc2)ccc1NC(=O)c1cccc(Cl)c1Cl` [17:2, [5-(4-benzoylamino-phenoxy)-2-(2,3-dichloro-benzoylamino)-phenyl]-acetic acid], the inhibition at 10 µM was found to be 99%.

Consider `CC(C)Oc1ccc(C(=O)Nc2ccc(Oc3ccc(NC(=O)c4ccccc4)cc3)cc2CC(=O)O)cc1` [17:3, [5-(4-benzoylamino-phenoxy)-2-(4-isopropoxy-benzoyl-amino)-phenyl]-acetic acid], for which the inhibition at 10 µM was 87%. Still for that read-out and setting: the value for `CCCCc1ccc(C(=O)Nc2ccc(Oc3ccc(NC(=O)c4ccc(C(F)(F)F)cc4F)cc3)cc2CC(=O)O)cc1` [17:4, {2-(4-butyl-benzoylamino)-5-[4-(2-fluoro-4-trifluoromethyl-benzoylamino)-phenoxy]-phenyl}-acetic acid] was 79%.

For the compound `CCCCc1ccc(C(=O)Nc2ccc(Oc3ccc(NC(=O)c4ccc(Cl)cc4Cl)c(CC(=O)O)c3)cc2)cc1` [17:5, [5-[4-(4-butyl-benzoylamino)-phenoxy]-2-(2,4-dichloro-benzoylamino)-phenyl]-acetic acid], the inhibition at 10 µM turned out to be 94%. Still for that read-out and setting: the figure for `CCCCc1ccc(C(=O)Nc2ccc(Oc3ccc(NS(=O)(=O)c4ccc5c(c4)CNCC5)c(CC(=O)O)c3)cc2)cc1` [17:6, [5-[4-(4-butyl-benzoylamino)-phenoxy]-2-(1,2,3,4-tetrahydro-isoquinoline-7-sulfonylamino)-phenyl]-acetic acid] is 23%.

As for `CCCCOc1ccc(S(=O)(=O)Nc2ccc(Oc3ccc(NC(=O)c4ccccc4)cc3)cc2CC(=O)O)cc1` [17:7, [5-(4-benzoylamino-phenoxy)-2-(4-butoxy-benzenesulfonyl-amino)-phenyl]-acetic acid], the inhibition at 10 µM amounted to 95%. With `CN(c1cc(Oc2ccc(NS(=O)(=O)c3cccc(Cl)c3Cl)cc2)cc(C(=O)O)c1)c1ccc(F)c(F)c1` [18:1, 3-[4-(2,3-dichloro-benzenesulfonylamino)-phenoxy]-5-[(3,4-difluoro-phenyl)-methyl-amino]-benzoic acid], the inhibition at 10 µM was 97%. As to `O=C(O)c1cc(Nc2ccc(F)c(F)c2)cc(Oc2ccc(Nc3ccc(Cl)cc3)cc2)c1` [18:2, 3-[4-(4-Chloro-phenylamino)-phenoxy]-5-(3,4-difluoro-phenylamino)-benzoic acid], the inhibition at 10 µM turned out to be 97%. For the compound `CN(c1cc(Oc2ccc(Nc3ccc(C(=O)C4CC4)cc3)cc2)cc(C(=O)O)c1)c1ccc(F)c(F)c1` [18:3, 3-[4-(4-Cyclopropanecarbonyl-phenylamino)-phenoxy]-5-[(3,4-difluoro-phenyl)-methyl-amino]-benzoic acid], the inhibition at 10 µM amounted to 95%. Regarding `Cc1c(Cl)cccc1S(=O)(=O)Nc1ccc(Oc2cc(Nc3ccc(F)c(F)c3)cc(C(=O)O)c2)cc1` [18:4, 3-[4-(3-Chloro-2-methyl-benzene-sulfonylamino)-phenoxy]-5-(3,4-difluoro-phenylamino)-benzoic acid], the inhibition at 10 µM is 98%.

As for `O=C(O)c1cc(Nc2ccc(F)c(F)c2)cc(Oc2ccc(NC(=O)c3cccc(Cl)c3)cc2)c1` [18:5, 3-[4-(3-Chloro-benzoylamino)-phenoxy]-5-(3,4-difluoro-phenylamino)-benzoic acid], the inhibition at 10 µM was found to be 100%.

In the case of `CN(c1cc(Oc2ccc(NC(=O)c3cccc(Cl)c3)cc2)cc(C(=O)O)c1)c1ccc(F)c(F)c1` [18:6, 3-[4-(3-Chloro-benzoylamino)-phenoxy]-5-[(3,4-difluoro-phenyl)-methyl-amino]-benzoic acid], the inhibition at 10 µM is 96%. Consider `CCCCOc1ccc(S(=O)(=O)Nc2ccc(Oc3cccc(S(=O)(=O)Nc4ccc(F)c(F)c4)c3)cc2C(=O)O)cc1` [19:2, 2-(4-Butoxy-benzenesulfonylamino)-5-[3-(3,4-difluoro-phenylsufamoyl)-phenoxy]-benzoic acid], for which the “% inh.” value came to 100%. Take `O=C(Nc1ccc(Oc2cccc(S(=O)(=O)Nc3ccc(F)c(F)c3)c2)cc1C(=O)O)c1ccc(Cl)cc1Cl` [19:3, 2-(2,4-Dichloro-benzoylamino)-5-[3-(3,4-difluoro-phenylsufamoyl)-phenoxy]-benzoic acid]: the “% inh.” value came to 100%. As to `CCCCOc1ccc(S(=O)(=O)Nc2ccc(Oc3cccc(C(=O)NS(=O)(=O)c4cccc(Cl)c4F)c3)cc2C(=O)O)cc1` [20:1, 2-(4-Butoxy-benzenesulfonylamino)-5-[3-(3-chloro-2-fluoro-benzene-sulfonylaminocarbonyl)-phenoxy]-benzoic acid], the inhibition at 10 µM stood at 99%.

A word on the inhibition: it is the change of the read-out against control, counted positive when it falls.
